From publication PMC10349806 (Nature Communications, 2023)
Several values for one entry are separate records, joined by “and”; a condition that tells them apart may be missing. Equal entries are not always repeated.

Target: T1, PfCRT variant D368A (Plasmodium falciparum, UniProt Q9N623, A220S/D368A/I356T/K76T/M74I/N326S/N75E/Q271E/R371I)
T1 sequence (Q9N623 1-424 M74I/N75E/K76T/A220S/Q271E/N326S/I356T/D368A/R371I): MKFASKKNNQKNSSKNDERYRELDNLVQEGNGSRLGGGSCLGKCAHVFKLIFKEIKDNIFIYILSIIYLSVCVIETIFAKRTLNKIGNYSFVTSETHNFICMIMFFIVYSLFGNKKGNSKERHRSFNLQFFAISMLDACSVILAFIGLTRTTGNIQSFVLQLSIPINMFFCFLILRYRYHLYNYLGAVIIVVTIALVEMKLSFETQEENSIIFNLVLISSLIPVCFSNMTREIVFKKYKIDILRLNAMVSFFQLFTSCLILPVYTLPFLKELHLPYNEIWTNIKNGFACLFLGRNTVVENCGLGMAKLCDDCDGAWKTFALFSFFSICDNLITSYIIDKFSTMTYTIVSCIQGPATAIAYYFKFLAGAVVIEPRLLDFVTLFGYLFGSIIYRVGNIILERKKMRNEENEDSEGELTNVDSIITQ
Experiment: CQ uptake assay, oocytes expressing D368A
Assay type: cell-based
Method: Site-directed mutagenesis of PfCRT^Dd2 was performed as described using the megaprimer method with overlap extension[21],[54]. The primer pairs used are listed in Supplementary Table 6. Please note that a codon-optimized and oocyte-adapted version of PfCRT^Dd2 was used[22] (Supplementary Fig. 16). The resulting DNA fragment was cloned into the SP64T expression vector and verified by sequencing.
Oocytes were obtained as described previously. Briefly, adult (>2 years old) female X. laevis frogs (NASCO) were anesthetized in a cooled solution of ethyl 3-amino benzoate methanesulfonate (0.1%, w/v), followed by a surgical removal of parts of the ovary. The ovary lobes were carefully dissected and small pieces of oocytes were incubated in Ca^2+-free ND96 buffer (96 mM NaCl, 2 mM KCl, 1 mM MgCl2 buffered with 5 mM HEPES/NaOH, pH 7.5) supplemented with collagenase D (0.1%, w/v; Roche), BSA (0.5%, w/v), and 9 mm Na2HPO4 at 18 °C for 14-16 h while gentle shaking. After incubation, the oocytes were carefully washed several times with ND96 buffer (96 mM NaCl, 2 mM KCl, 1.8 mM CaCl2, 1 mM MgCl2 buffered with 5 mM HEPES/NaOH, pH 7.5) supplemented with 100 mg l^−1 gentamycin). Defolliculated and healthy-looking stage V-VI oocytes were manually selected for RNA microinjection. The RNA was generated as following: The codon-optimized sequences of PfCRT variants were cloned into the pSP64T expression vector. After vector linearization using the restriction endonucleases BamHI or SalI (New England Biolabs), transcription was performed using the in vitro SP6 mMessage mMachine Kit (Ambion)[34]. The obtained RNA was kept at −80 °C and diluted with nuclease-free water to a concentration of 0.6 μg μl^−1. Precision-bore glass capillary tubes (3.5-inch glass capillaries; Drummond Scientific Co.) were pulled on a vertical puller (P-87 Flaming/Brown micropipette puller, Sutter Instrument Co.), graduated, and placed on a microinjector (Nanoject II Auto-Nanoliter Injector, Drummond Scientific Co.). 50 nl of nuclease-free water alone (control oocytes) or 50 nl of 0.6 μg μl^−1 RNA were injected under stereomicroscopic control. Injected oocytes were incubated for 46–72 h at 18 °C with twice-daily buffer changes before usage in experiments.
Drug uptake assays were performed as described previously[21],[22],[24],[34]. […] The direction of radio-labeled drug transport is here from the mostly acidic extracellular solution (pH 4.5 or 6.0, as indicated) into the oocyte cytosol (pH ∼ 7.2), which corresponds to the efflux of drug from the acidic digestive vacuole (pH 5.2) into the parasite cytoplasm (pH 7.2). The topology of PfCRT in the oolemma is such that both the N- and C-terminus face the extracellular milieu[3],[22]. In the parasite, the N- and C-terminus face the lumen of the digestive vacuole. CQ uptake kinetics were performed by incubating oocytes in ND96 buffer adjusted to a pH of 4.5, 5.0, 5.5, or 6.0 and supplemented with 50 nM [^3H]CQ and one of 7 different CQ concentrations (10 µM, 50 µM, 100 µM, 200 µM, 300 µM, 400 µM, 500 µM CQ). The reaction was stopped at the 60 min time point, which is in the linear uptake range[22],[34] (Supplementary Fig. 17). […] The radioactivity of each sample was measured using a liquid scintillation analyzer Tri-Carb 4910 TR (PerkinElmer). Oocytes that were injected with water instead of RNA were analyzed in parallel, representing the uptake of a drug by diffusion and/or endogenous permeation pathways. […]

[1] = D368A, 50 µM CQ, 1 h, mean ± SEM

CCN(CC)CCCC(C)Nc1ccnc2cc(Cl)ccc12 (centres unmarked) [CQ, chloroquine]
Activity at pH 4.5 [1]: 1.36 ± 0.32 pmol h-1 oocyte-1
Activity at pH 6.0 [1]: 3.05 ± 0.29 pmol h-1 oocyte-1
R-value (D368A, CQ transport at pH 4.5 / pH 6.0): 0.44 ± 0.08
D368A transport activity pH 4.5 (pH 4.5, single replicates, Fig 1d left): 2.14 pmol oocyte-1 h-1 and 0.90 pmol oocyte-1 h-1 and 1.05 pmol oocyte-1 h-1
D368A transport activity pH 6.0 (pH 6.0, single replicates, Fig 1d left): 3.49 pmol oocyte-1 h-1 and 3.31 pmol oocyte-1 h-1 and 2.36 pmol oocyte-1 h-1
